{"source": "patent US4731363A", "about": "“Thromboxane synthase inhibitors as insulin lowering agents and antiobesity agents” (priority 1986, dated 1988)", "key": {"[1]": {"target": "T1, thromboxane synthase (Human Platelet Microsomes) (Homo sapiens, UniProt P24557)", "T1 construct": "Platelets were obtained from 320 ml of whole blood and resuspended in 5.0 ml of Krebs-Hensleit buffer; from tissue; host or cells: human platelets (microsomes, 110,000 g pellet)", "T1 sequence (P24557 1-533)": "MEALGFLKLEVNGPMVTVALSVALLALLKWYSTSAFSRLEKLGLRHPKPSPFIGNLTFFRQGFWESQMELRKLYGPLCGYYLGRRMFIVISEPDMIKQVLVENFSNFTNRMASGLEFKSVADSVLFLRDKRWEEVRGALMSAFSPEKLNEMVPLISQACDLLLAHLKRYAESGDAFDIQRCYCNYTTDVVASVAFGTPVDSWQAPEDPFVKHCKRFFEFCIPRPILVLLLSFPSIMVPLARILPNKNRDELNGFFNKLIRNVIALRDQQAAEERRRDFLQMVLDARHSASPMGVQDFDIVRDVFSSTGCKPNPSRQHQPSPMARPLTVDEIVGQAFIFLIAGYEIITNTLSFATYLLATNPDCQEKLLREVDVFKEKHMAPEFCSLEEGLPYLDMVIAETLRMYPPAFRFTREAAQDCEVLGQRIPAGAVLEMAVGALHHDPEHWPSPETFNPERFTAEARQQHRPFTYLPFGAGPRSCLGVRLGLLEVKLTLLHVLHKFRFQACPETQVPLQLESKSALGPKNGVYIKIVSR", "experiment": "Thromboxane synthase inhibition, human platelet microsomes", "format": "biochemical", "conditions": "enzyme source H = Human Platelet Microsomes; read-out: IC50", "protocol": "In said assay procedure, microsomes from guinea pig lung or human platelets are added to an endoperoxide intermediate in prostaglandin biosynthesis and the inhibitor in phosphate buffer solution followed by incubation, extraction and determination of the extent of thromboxane synthase inhibition by TLC with radiochromatographic profile analysis.\nDetermination of Inhibition of Thromboxane Synthase Activity Isolation of Human Platelet Microsomes\nPlatelets were obtained from 320 ml of whole blood and resuspended in 5.0 ml of Krebs-Hensleit buffer (CA^+2 free). After three consecutive freeze-thawing cycles, homogenization and centrifugation at 12,000 g for 45 min., the 12,000 supernatant was recentrifuged at 110,000 g for 60 min. The resultant pellet was resuspended in phosphate buffer (0.5 ml, 0.1M, pH 7.5) and stored at -70° until use.\nLow specific activity PGH2 (3.3 μCi/μmole) was obtained from Dr. W. E. M. Lands of the University of Michigan. PGH2 of higher specific activity (16.0 μCi/μmole) was purchased from Ran Biochemicals, Tel-Aviv, Israel.\nThe inhibitors tested were prepared as solutions (1-10 mg/ml) in 95% ethanol.\nAssay for Thromboxane Synthase\nTo a 12×75 mm tube containing [1-^14 C] PGH2 (2 μg, 0.01 μCi or 0.05 μCi) and inhibitor (1 mM final assay concentration, in 10 μl of ethanol) in 225 μl of phosphate buffer (0.1M, pH 7.5), was added to an aliquot of guinea pig lung microsomes (25 μl, containing 400 μg protein) or an aliquot of human platelet microsomes (25 μl, containing .congruent.[…] protein). The solution was incubated in a 22° water bath for 2 min.; ether (1 ml) and citric acid (25 μMoles) were added, and the tube plunged into an acetone-dry ice bath. The ether extract was transferred to a 1.0 ml Reacti-vial, and the volume reduced under nitrogen to .congruent.50 μl.\nThe extract was applied to an I.T.L.C., type SG, glass fiber sheet (Gelman Instrument Co., Ann Arbor, Mich.) and developed in isooctane; methyl ethyl ketone: acetic acid (100:19:1 or 100:9:1) (19). The sheets were air dried and scanned using a Berthold LB 2760 Radiochromatographic Scanner. In certain cases, based on the radiochromatographic profile obtained, the sheets were cut, the appropriate regions placed in scintillation vials, 10 ml of LSC cocktail (Yorktown Research, S. Hackensack, NJ) added, and the relative cpm determined."}, "obese Zucker rats": {"test_system": "obese Zucker rats", "experiment": "Antiobesity activity in vivo in obese Zucker rats", "set-up": "species or system rat", "conditions": "16 to 18 days; for Body Weight Gain: treated minus control", "protocol": "Determination of Antiobesity Activity\nThromboxane synthase inhibitors were evaluated for antiobesity activity in vivo. Body weight, food intake and circulating insulin levels were monitored during periods of drug treatment. Analysis of carcass composition was performed at study termination.\nAnimals, Diets and Drug Administration\nLean and obese male and female Zucker rats bred at Hoffmann-La Roche Inc. (Nutley, NJ) were kept in wire-bottomed individual cages in light (12 hr dark and light cycles beginning at 6 p.m. and 6 a.m., respectively) and temperature-controlled (22°) rooms. All rats were fed chow diet (Ralston Purina Co., St. Louis, MO) ad libitum until one to three weeks before the start of drug treatment, at which time they were trained to consume a high glucose low fat (1% corn oil) diet which is herein referred to as G-70:1% CO. Following the one to three-week training period on G-70:1% CO, the average daily food intake was calculated, and the rats were weighed and divided into groups of four to seven rats each.\nThe control animals continued to eat the G-70:1% CO diet ad libitum, and the experimental groups were given G-70:1% CO diet containing drug (also fed ad libitum). The amount of drug added to the diet of each experimental group was based on calculations of food consumed per kg body weight using data collected at the end of the training period. […] The period of drug treatment ranged from 16 to 18 days as noted in the legends to the tables and graph. Food intake and body weight were recorded either daily or twice a week throughout the duration of the study. The amount of drug administered was calculated from the food intake per kg body weight for each experimental group. Body weight data are reported as the difference between the body weight gains of control and drug-treated animals. Food intake and insulin data are reported as percent of control.\n^a Average duration of treatment was 16 to 18 days.\n^b Body weight gain was computed by taking the difference between the\nweight gain of treated and control rats."}}}
{"smiles": "CC(=O)c1ccc(-n2ccnc2)cc1", "note": "[1-[4-(1H--imidazol-1-yl)phenyl]ethanone, 1-[4-(1H-imidazol-1-yl)phenyl]ethanone]", "values": [{"measurement": "IC50", "setting": "[1]", "result": "1 to 10", "unit": "µM"}, {"measurement": "Food Consumption", "setting": "obese Zucker rats; 60 mg/kg in diet, P ≤ 0.05", "result": "82 ± 3 % of control"}, {"measurement": "Insulin", "setting": "obese Zucker rats; 60 mg/kg in diet, not marked significant", "result": "66 ± 16 % of control"}, {"measurement": "Body Weight Gain", "setting": "obese Zucker rats; 60 mg/kg in diet, P ≤ 0.05", "result": -25, "unit": "g"}, {"measurement": "Food Consumption", "setting": "obese Zucker rats; 87 mg/kg in diet, P ≤ 0.05", "result": "84 ± 1 % of control"}, {"measurement": "Insulin", "setting": "obese Zucker rats; 87 mg/kg in diet, P ≤ 0.05", "result": "32 ± 5 % of control"}, {"measurement": "Body Weight Gain", "setting": "obese Zucker rats; 87 mg/kg in diet, P ≤ 0.05", "result": -32, "unit": "g"}, {"measurement": "Food Consumption", "setting": "obese Zucker rats; 113 mg/kg in diet, P ≤ 0.05", "result": "74 ± 1 % of control"}, {"measurement": "Insulin", "setting": "obese Zucker rats; 113 mg/kg in diet, P ≤ 0.05", "result": "24 ± 1 % of control"}, {"measurement": "Body Weight Gain", "setting": "obese Zucker rats; 113 mg/kg in diet, P ≤ 0.05", "result": -74, "unit": "g"}]}
